One compound from patent US20060194814A1, “Benzamide compounds” (priority 2003, published 2006) can be followed below.

Data set [1] relates to HIV-1 IIIB strain. In words: HIV-1 IIIB replication in HeLa indicator cells (AV-Finder-HIV assay), no pre-medication. In kind it is cell-based.
Data set [2] deals with HIV-1 IIIB strain. The experiment in a line: HIV-1 IIIB replication in HeLa cells, 48 hours pre-medication. It counts as cell-based. Conditions: 48 hours pretreatment; all concentrations tested.
Another data set has as its system HeLa cells. The experiment in a line: MTT cytotoxicity assay after the HIV replication protocol. In kind it is cell-based, human. As to conditions: all concentrations tested, up to 100 μM.
Data set [3] concerns Y1 mouse adrenal tumor cells. In words: dbcAMP-induced 20á-hydroxyprogesterone synthesis in Y1 cells. It counts as cell-based. As to conditions: Y1 cells. The protocol:
(§1) Culture media were then changed and cells were stimulated with 1 mM dbcAMP and the treatment for 24 to 48 hours. […] The synthesis of 20 —OH progesterone and progesterone in Y1 and MA-10 cell media respectively were measured by RIA (Brown et al., 1992). H295R human adrenal tumor cells were seeded in 48-well plates at 10^5 cells/well and incubated for 24 hours. […] At the end of the incubation time period, cells were treated with 1 mM dbcAMP for 48 hours. Cortisol levels in the media were determined by radioimmunoassay as previously described (Amri et al., 1996).

For data set [4], the system named is H295R human adrenal tumor cells. In words: dbcAMP-induced cortisol synthesis in H295R cells. It counts as cell-based. The protocol: as §1
Data set [5] has as its system MA-10 mouse Leydig tumor cells. The experiment in a line: dbcAMP-induced progesterone synthesis in MA-10 cells. In kind it is cell-based. The protocol:
as §1

Another data set concerns PKA. The experiment in a line: dbcAMP-stimulated PKA activity (PepTag assay) in Y1 cells. In kind it is cell-based, mouse. Also on record: dose or concentration left out as unconfirmed. The protocol: Y1 cells were cultured in 6-well plates (2×10^5 cells per well) and treated as described above for steroid biosynthesis. At the end of the incubation, cells were washed twice with PBS and proteins were extracted using an extraction buffer (25 mM tris-HCl, pH 7.4, 0.5 mM EDTA, 0.5 mM EGTA, 10 mM -mercaptoethanol, 0.5 mM PMSF, 1 g/ml leupeptin, and 1 g/ml aprotinin). After centrifugation at 18,500 g for 15 minutes, the supernatants were kept for PKA activity assay. Samples were processed using the PepTag assay for non-radioactive detection of PKA activity following the manufacturer's recommendations (Promega Corporation, Madison, Wis.).

For data set [6], the system named is steroidogenesis acute regulatory protein (StAR). In words: Immunoblot of StAR protein in Y1 cells. It counts as cell-based, mouse. As to conditions: 1 μM procaine, 48 hour treatment. The protocol:
At the end of the treatment protocol described above, Y1 cells at 90% confluency were washed 2 times with PBS, sonicated 15 seconds in extraction buffer and centrifuged at 18,500 g for 15 minutes at 4° C. Pellets were resuspended in ice-cold lysis buffer (1% Nonidet 40 in extraction buffer), sonicated briefly, and incubated on ice for 1 hour. After centrifugation (22,500 g×30 min, 4° C.), the supernatant was mixed in sample buffer 6× (0.27 M SDS, 0.6 M dithiothreitol, 0.18 M bromphenol blue in 7 ml of 0.5 M Tris-HCl, pH 6.8, and 3 ml glycerol) and boiled for 5 minutes. Proteins were subjected to SDS-PAGE (4-20% gradient SDS polyacrylamide gel) and electrophoretically transferred onto nitrocellulose membranes. The transblot sheets were blocked with 5% non fat dry milk in 25 mM Tris HCl, pH 7.5, 150 mM NaCl, and 0.1% Tween 20 overnight at 4° C. Membranes were then incubated with appropriately diluted primary antibodies 1:800 for anti-P-450scc (Research Diagnostics Inc. Flanders, N.J.) and 1:200 for anti-StAR (Amri et al., 1996), and the reaction was detected by a peroxidase-conjugated secondary antibody (Santa Cruz Biotechnology, Santa Cruz, Calif.) and enhanced chemiluminescence (Amersham Life, Arlington Heights, Ill.). The densities of the appropriate bands were determined using the OptiQuant Acquisition & Analysis software (Packard BioScience).
Background: In western blotting, separated proteins are transferred to a membrane and probed.

A further data set has as its system Y1 cells. In words: dbcAMP and mevalonate-supported 20á-hydroxyprogesterone formation in Y1 cells. In kind it is cell-based, mouse. Also on record: dose or concentration left out as unconfirmed. As to conditions: procaine. The protocol:
as §1

A further data set concerns HMG-CoA reductase. The experiment in a line: HMG-CoA reductase activity in procaine-treated Y1 cells. In kind it is cell-based, mouse. Also on record: percent inhibition of HMG-CoA reductase activity: unit of the concentration uncertain. The protocol: Cells were washed twice with ice-cold PBS and incubated with ice-cold assay buffer (0.1M sucrose, 40 mM KH2PO4, 30 mM EDTA, 50 mM KCl, 5 mM DTT, 0.25% (v/v) of Brij 96, at pH 7.4) on ice for 20 minutes. After centrifugation for 3 minutes at 14000 g (4° C.) the supernatants were collected and used for HMG-CoA reductase activity assay. […] The reaction was started by adding substrate (^14C-HMG-CoA, 0.1 Ci) and stopped after 45 minutes by adding 10-1 of HCl 6M. ^3H-mevalonolactone was also added to the samples as an extraction recovery marker. After an additional 30 minutes incubation time, to allow complete lactonization of the product, the mixture was centrifuged.

For data set [7], the system named is HMG-CoA reductase mRNA. In words: HMG-CoA reductase mRNA expression by Q-PCR in UT-1 cells. It counts as cell-based, Chinese hamster. The protocol: (§2) After treatment, cells were stimulated with 1 mM dbcAMP for 24 hours. At the end of the incubation, total cell RNA was extracted using RNA STAT-60 (Tel-Test Inc, Friendswood, Tex.) according to the manufacturer's instructions. HMG-CoA reductase mRNA was quantified by Q-PCR using the ABI Prism 7700 sequence detection system (Perkin-Elmer/Applied Biosystems, Foster City, Calif.). RT reaction was performed using TaqMan® Reverse Transcription Reagents with 1 g total RNA and random hexamers as primers for each reaction according to the manufacturer's instructions. For quantifying mouse HMG-CoA reductase mRNA with Q-PCR, the primers were designed according to GenBank Accession Number BC 019782 using PE/AB Primer Express software, which is specifically designed for the selection of primers and probes. The forward primer was 5′-[…]-3′ (22 nucleotides; SEQ ID NO:1) and reverse primer was 5′-[…]-3′ (23 nucleotides; SEQ ID NO:2), respectively. The primers were synthesized by Bio-Synthesis Inc. (Lewisville, Tex.). Reactions were performed in a reaction mixture consisting of a 20 l volume solution containing 10 l SYBR® Green PCR Master Mix and 1 l primers mix (5 M each) with 2 l cDNA.

Data set [8] deals with HMG-CoA reductase mRNA. The experiment in a line: HMG-CoA reductase mRNA expression by Q-PCR in Hepa1-6 cells. In kind it is cell-based. As to conditions: Hepa1-6 mouse liver hepatoma cells. The protocol: as §2

Where a name gives a salt, the structure may show the parent alone.

As for `CCN(CC)CCOC(=O)c1ccc(N)cc1` [SP01, procaine HCl], the “efficacy in reducing HIV-1 IIIB replication compared to AZT, ddI or 3TC” value in the data set on HIV-1 IIIB strain [1] (human cells) is on record as “efficacy higher than AZT, ddI or 3TC”. Moreover, in the data set with HIV-1 IIIB strain [1] (no pre-medication, concentrations up to 0.1 μM), the “efficacy on HIV-1 IIIB viral replication compared to 3TC” value is reported as “higher efficacy than the classical antiviral agent 3TC”. Moreover, the “inhibition of HIV replication” value in the data set with HIV-1 IIIB strain [2] was determined as 75%. Also, the “cell toxicity (MTT)” value with HeLa cells is “devoid of cell toxicity”. The “effect on dbcAMP-induced 20á-hydroxyprogesterone production” value in data set [3] is “decreased in a dose-dependent manner”. The “lowest concentration inhibiting cAMP-induced steroid synthesis” value in data set [3] was 0.1 µM. In addition, in data set [3] (procaine at 1 M / 1 iM), the “inhibition of dbcAMP-stimulated steroid formation” value is on record as 90%. Also, the “effect on dbcAMP-stimulated cortisol production” value in [4] is recorded as “inhibited the dbcAMP-stimulated cortisol production in a dose-dependent manner”. Moreover, the “effect on basal cortisol production” value in [4] (basal) was “without effecting basal cortisol production”. Besides, the “effect on dbcAMP-induced progesterone synthesis” value in data set [5] was “did not affect”. Further, in the data set with PKA, the “effect on dbcAMP-stimulated PKA activity” value was “no significant effect”. In addition, in data set [6], the “effect on levels of the mature 30 kDa StAR protein” value is given as “did not affect”. Further, in the data set on Y1 cells, the “effect on dbcAMP and mevalonate-supported 20á-hydroxyprogesterone formation” value was “did not inhibit”. Also, the “percent inhibition of HMG-CoA reductase activity” value stood at 44% in the data set with HMG-CoA reductase (concentration 1 (unit uncertain)), 72% with HMG-CoA reductase (concentration 10 (unit uncertain)) and 70 with HMG-CoA reductase (concentration 100 (unit uncertain)). For the same compound, the “concentration giving maximal inhibition of HMG-CoA reductase activity” value in the data set on HMG-CoA reductase (dbcAMP stimulated) was 10 µM. In addition, the “effect on HMG-CoA reductase mRNA expression” value in the data set on HMG-CoA reductase mRNA [7] is given as “not significant”. The “effect on dbcAMP-induced HMG-CoA reductase mRNA levels” value in the data set on HMG-CoA reductase mRNA [8] is “inhibited”.
